Assay results: US20200085776A1, “Methods of Reducing C-Reactive Protein and/or Treating Cardiovascular Disease” (CARDAX, INC., priority 2018, published 2020)

System: C-reactive protein (CRP)
Experiment: CRP (hs-CRP) in blood, CHASE clinical study
Assay type: in vivo, human
Conditions: Group X 12 mg BID; for CRP Max / CRP Mean (SD) / CRP Median / CRP Min: V6 Week 12
Description: This is a two-part study comprising Part I and Part II. Following screening, Part I consists of a randomized, double-blind, placebo controlled dosing period of up to 12 weeks. The study shall be conducted at one or more study sites in Hawaii. Approximately 360 subjects qualified after completion of screening procedures shall be randomized in a 1:1:1 ratio to one of three treatment groups, per Table 1.
The Part I 12-week double-blind dosing period commences with V2, including randomization and first dose of study product, and continues with study visits at Week 1-2 (V3), Week 4 (V4), Week 8 (V5), and Week 12 (V6). V6 procedures will conclude Part I.
Blood shall be obtained at each visit for CRP. The screening specimen shall be processed at the local lab and reported to the study staff for eligibility determination; CRP samples at V7 and V8 may also be processed locally and reported directly to study staff. Samples for CRP from V2 through V6 may be batched, processed, and reported as specified in the Laboratory Manual.
At each these visits, blood was obtained for measurement of CRP, among other parameters. Table 7A provides a summary of the CRP measurements (mg/L) at each visit and Table 7B provides a summary of the differences of CRP levels between V2 and V6.

[1] = subjects with DM2, hypertension and hyperlipidemia but not CAD
[2] = subjects with Diabetes Mellitus Type II
[3] = subjects with baseline level greater than 2.0
[4] = baseline to Week 12, all subjects
[5] = baseline to Week 12, subjects not taking a hypertension agent
[6] = baseline to Week 12, subjects not taking any cardiac therapeutic agent
[7] = baseline to Week 12, subjects not taking statins
[8] = baseline to Week 12, subjects taking an anti-diabetic agent
[9] = baseline to Week 12, subjects with CAD
[10] = baseline to Week 12, subjects with DM2, hypertension and hyperlipidemia but not CAD
[11] = baseline to Week 12, subjects with Diabetes Mellitus Type II
[12] = baseline to Week 12, subjects with baseline level greater than 2.0
[13] = baseline to Week 12, subjects with hyperlipidemia

CC1=C(/C=C/C(C)=C/C=C/C(C)=C/C=C/C=C(C)/C=C/C=C(C)/C=C/C2=C(C)C(=O)C(O)CC2(C)C)C(C)(C)CC(O)C1=O (stereo not drawn) [Astaxanthin, astaxanthin]
CRP Max [1]: 6.80 mg/L | CRP Mean (SD) [1]: 2.95 (2.32) mg/L | CRP Median [1]: 1.91 mg/L | CRP Min [1]: 1.02 mg/L | CRP Max [2]: 6.80 mg/L | CRP Mean (SD) [2]: 2.91 (2.07) mg/L | CRP Median [2]: 2.32 mg/L | CRP Min [2]: 1.02 mg/L | CRP Max [3]: 11.04 mg/L | CRP Mean (SD) [3]: 3.69 (3.14) mg/L | CRP Median [3]: 2.71 mg/L | CRP Min [3]: 0.22 mg/L | CRP Max (subjects with hyperlipidemia): 11.04 mg/L | CRP Mean (SD) (subjects with hyperlipidemia): 3.90 (3.38) mg/L | CRP Median (subjects with hyperlipidemia): 2.71 mg/L | CRP Min (subjects with hyperlipidemia): 1.02 mg/L | CRP V2 to V6 % Change Max [4]: 122.6% | CRP V2 to V6 % Change Mean [4]: −21.3% | CRP V2 to V6 % Change Median [4]: −31.8% | CRP V2 to V6 % Change Min [4]: −89.8% | CRP V2 to V6 Change Max [4]: 6.08 mg/L | CRP V2 to V6 Change Mean [4]: -2.07 mg/L | CRP V2 to V6 Change Median [4]: -1.57 mg/L | CRP V2 to V6 Change Min [4]: -11.1 mg/L | CRP V2 to V6 % Change Max [5]: −25.8, −25.8% | CRP V2 to V6 % Change Mean (SD) [5]: −25.8% | CRP V2 to V6 % Change Median [5]: −25.8% | CRP V2 to V6 % Change Min [5]: −25.8, −25.8% | CRP V2 to V6 Change Max [5]: −0.94, −0.94 mg/L | CRP V2 to V6 Change Mean (SD) [5]: -0.94 mg/L | CRP V2 to V6 Change Median [5]: -0.94 mg/L | CRP V2 to V6 Change Min [5]: −0.94, −0.94 mg/L | CRP V2 to V6 % Change Max [6]: −25.8% | CRP V2 to V6 % Change Mean (SD) [6]: −56.6 (29.46) % | CRP V2 to V6 % Change Median [6]: −61.9% | CRP V2 to V6 % Change Min [6]: −89.8% | CRP V2 to V6 Change Max [6]: -0.37 mg/L | CRP V2 to V6 Change Mean (SD) [6]: −4.28 (4.63) mg/L | CRP V2 to V6 Change Median [6]: -1.94 mg/L | CRP V2 to V6 Change Min [6]: -11.1 mg/L | CRP V2 to V6 % Change Max [7]: 122.6% | CRP V2 to V6 % Change Mean (SD) [7]: 2.34 (88.58) % | CRP V2 to V6 % Change Median [7]: −25.6% | CRP V2 to V6 % Change Min [7]: −89.8% | CRP V2 to V6 Change Max [7]: 6.08 mg/L | CRP V2 to V6 Change Mean (SD) [7]: −0.18 (4.04) mg/L | CRP V2 to V6 Change Median [7]: -0.80 mg/L | CRP V2 to V6 Change Min [7]: -5.89 mg/L | CRP V2 to V6 % Change** Max [8]: −26.6% | CRP V2 to V6 % Change** Mean (SD) [8]: −52.9 (20.70) % | CRP V2 to V6 % Change** Median [8]: −55.7% | CRP V2 to V6 % Change** Min [8]: −78.8% | CRP V2 to V6 Change Max [8]: -0.37 mg/L | CRP V2 to V6 Change Mean (SD) [8]: −4.61 (4.14) mg/L | CRP V2 to V6 Change Median [8]: -3.76 mg/L | CRP V2 to V6 Change Min [8]: -11.1 mg/L | CRP V2 to V6 % Change Max [9]: −68.4% | CRP V2 to V6 % Change Mean (SD) [9]: −68.4% | CRP V2 to V6 % Change Median [9]: −68.4% | CRP V2 to V6 % Change Min [9]: −68.48% | CRP V2 to V6 Change Max [9]: −5.89, −5.89 mg/L | CRP V2 to V6 Change Mean (SD) [9]: -5.89 mg/L | CRP V2 to V6 Change Median [9]: -5.89 mg/L | CRP V2 to V6 Change Min [9]: −5.89, −5.89 mg/L | CRP V2 to V6 % Change Max [10]: −26.6% | CRP V2 to V6 % Change Mean (SD) [10]: −49.7 (21.51) % | CRP V2 to V6 % Change Median [10]: −49.5% | CRP V2 to V6 % Change Min [10]: −78.8% | CRP V2 to V6 Change Max [10]: -0.37 mg/L | CRP V2 to V6 Change Mean (SD) [10]: −4.35 (4.57) mg/L | CRP V2 to V6 Change Median [10]: -1.63 mg/L | CRP V2 to V6 Change Min [10]: -11.1 mg/L | CRP V2 to V6 % Change Max [11]: −26.6% | CRP V2 to V6 % Change Mean (SD) [11]: −52.9 (20.70) % | CRP V2 to V6 % Change Median [11]: −55.7% | CRP V2 to V6 % Change Min [11]: −78.8% | CRP V2 to V6 Change Max [11]: -0.37 mg/L | CRP V2 to V6 Change Mean (SD) [11]: −4.61 (4.14) mg/L | CRP V2 to V6 Change Median [11]: -3.76 mg/L | CRP V2 to V6 Change Min [11]: -11.1 mg/L | CRP V2 to V6 % Change Max [12]: 122.6% | CRP V2 to V6 % Change Mean (SD) [12]: −20.8 (73.37) % | CRP V2 to V6 % Change Median [12]: −40.7% | CRP V2 to V6 % Change Min [12]: −89.8% | CRP V2 to V6 Change Max [12]: 6.08 mg/L | CRP V2 to V6 Change Mean (SD) [12]: −2.24 (4.83) mg/L | CRP V2 to V6 Change Median [12]: -1.60 mg/L | CRP V2 to V6 Change Min [12]: -11.1 mg/L | CRP V2 to V6 % Change Max [13]: 122.6% | CRP V2 to V6 % Change Mean (SD) [13]: −27.5 (63.84) % | CRP V2 to V6 % Change Median [13]: −40.7% | CRP V2 to V6 % Change Min [13]: −78.8% | CRP V2 to V6 Change Max [13]: 6.08 mg/L | CRP V2 to V6 Change Mean (SD) [13]: −2.81 (5.17) mg/L | CRP V2 to V6 Change Median [13]: -1.60 mg/L | CRP V2 to V6 Change Min [13]: -11.1 mg/L
